Source: publication PMC11605732, “In vitro screening of UGT2B10 in silico prioritized putative ligands from drugs used in the pediatric hematopoietic stem cell transplantation setting” (Pharmacology Research & Perspectives, 2024)
Read-outs that look alike come from different tables or passages of the source.

Assays:
[1] = target: T1, UGT2B10 (Homo sapiens, UniProt P36537); assay: inhibition of cotinine N-glucuronidation at […], UHPLC-MS/MS; assay type: biochemical; conditions: read-out: % inhibition at 10 μM
T1 construct: recombinant UGT2B10
T1 sequence (P36537 24-528): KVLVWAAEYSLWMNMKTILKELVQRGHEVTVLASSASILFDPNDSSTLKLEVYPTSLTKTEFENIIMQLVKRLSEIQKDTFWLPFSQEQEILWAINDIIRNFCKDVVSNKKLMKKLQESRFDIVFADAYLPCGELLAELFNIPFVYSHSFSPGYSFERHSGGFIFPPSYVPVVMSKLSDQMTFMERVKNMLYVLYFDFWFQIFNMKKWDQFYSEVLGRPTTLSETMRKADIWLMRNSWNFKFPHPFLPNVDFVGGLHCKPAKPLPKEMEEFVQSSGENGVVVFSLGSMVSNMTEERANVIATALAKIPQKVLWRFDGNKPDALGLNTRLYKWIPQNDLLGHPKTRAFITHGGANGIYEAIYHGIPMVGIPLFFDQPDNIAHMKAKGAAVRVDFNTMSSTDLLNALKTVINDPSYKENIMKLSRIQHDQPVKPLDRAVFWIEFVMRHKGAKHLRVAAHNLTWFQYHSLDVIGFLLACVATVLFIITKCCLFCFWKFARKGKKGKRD

[2] = target: T2, UGT1A6 (Homo sapiens, UniProt P19224); assay: glucuronide formation by recombinant enzyme, UHPLC-MS/MS; assay type: biochemical
T2 construct: recombinant UGT1A6
T2 sequence (P19224 27-532): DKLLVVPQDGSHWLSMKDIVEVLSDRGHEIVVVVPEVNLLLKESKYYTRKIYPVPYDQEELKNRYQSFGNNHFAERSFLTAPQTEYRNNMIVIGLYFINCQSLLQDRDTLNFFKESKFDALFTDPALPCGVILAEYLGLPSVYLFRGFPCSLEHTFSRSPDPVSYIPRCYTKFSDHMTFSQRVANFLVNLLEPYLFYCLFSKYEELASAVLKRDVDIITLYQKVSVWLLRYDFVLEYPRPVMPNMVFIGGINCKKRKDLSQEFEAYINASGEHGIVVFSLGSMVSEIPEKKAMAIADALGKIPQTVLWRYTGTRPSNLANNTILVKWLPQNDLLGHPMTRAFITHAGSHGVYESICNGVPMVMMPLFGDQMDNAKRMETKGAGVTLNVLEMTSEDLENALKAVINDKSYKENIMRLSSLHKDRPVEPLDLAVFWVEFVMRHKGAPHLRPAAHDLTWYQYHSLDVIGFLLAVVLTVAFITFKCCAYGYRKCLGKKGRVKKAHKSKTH

[3] = target: T1, UGT2B10; assay: inhibition of cotinine N-glucuronidation by recombinant enzyme, UHPLC-MS/MS; assay type: biochemical
[4] = substrate: CN1C(=O)CC[C@H]1c1cccnc1; assay: purified protein; conditions: UDPGA; MgCl2

With CN(C)CCC=C1c2ccccc2CCc2ccccc21 [AMT, amitriptyline] the inhibition at 10 µM [1] was 97.5%.

For CC(=O)Nc1ccc(O)cc1 [APAP, acetaminophen], the “glucuronide formation by recombinant enzyme, UHPLC-MS/MS” value [2] was “incubations of APAP and MPA with UGT1A6 produced APAP‐glucuronide and MPA‐ß‐D‐glucuronide, respectively”.

O=C1Nc2ccc(Cl)cc2C(c2ccccc2Cl)=NC1O (stereo not drawn) [LOR, lorazepam] gave an IC50 [3] of 0.01 µM.

COc1c(C)c2c(c(O)c1C/C=C(\C)CCC(=O)O)C(=O)OC2 [MPA, mycophenolic acid] was tested, and the IC50 ([3]; read-out: IC50) was 380 µM and the “glucuronide formation by recombinant enzyme, UHPLC-MS/MS” value [2] was “incubations of APAP and MPA with UGT1A6 produced APAP‐glucuronide and MPA‐ß‐D‐glucuronide, respectively”.

B1: UGT2B10 (Homo sapiens) (protein)
chain: T1 sequence (P36537 24-528)
With B1 the Km [4] was 4.043 mM.
